The text below walks through data of patent publication US20220145396A1, “METHOD OF IDENTIFYING PATIENTS WITH BORTEZOMIB RESISTANT MULTIPLE MYELOMA AND OTHER BLOOD DISEASES” (Max-Planck-Gesellschaft zur Förderung der Wissenschaften …, priority 2019, published 2022).

Test [1] concerns bortezomib resistant PSMB5 mutant cell lines. Kind of test: XTT cell viability assay of bortezomib resistant PSMB5 mutant clones (AN3-12 mouse haploid embryonic stem cells) treated with proteasome inhibitors. The test is classed as cell-based. As to the method: AN3-12 mouse haploid embryonic stem cells were cultured as previously described (Elling et al., 2011). In brief, the cells were grown in DMEM high glucose (Sigma-Aldrich, St. Louis, Mo.) supplemented with 15% fetal bovine serum, penicillin/streptomycin, glutamine, non-essential amino acids, sodium pyruvate (all Thermo Fisher Scientific, Waltham, Mass.), β-mercaptoethanol, and Leukemia-Inhibitor Factor (LIF) (both Merck Millipore, Darmstadt, Germany) on non-coated tissue culture plates.
Chemical mutagenesis was performed as previously described (Horn et al., 2011). In brief, AN3-12 cells were transferred to 15 ml tubes, incubated with 0.1 mg/ml ENU for two hours at room temperature, washed five times with LIF-free medium, and plated on culture dishes. The cells were selected with 25 nM Bortezomib (Selleckchem, Houston, Tex.) for three weeks, starting 24 h after mutagenesis. Resistant clones were transferred to 24-well plates and the Psmb5 locus was analyzed. DNA was extracted (DNA extraction solution, Epicentre, Biotechnologies, Madison, Wis.) and exon 2 or exon 3 of the Psmb5 genewere specifically amplified by PCR using the primers msPSMB5exon2_fwd ([…]), msPSMB5exon2_rev ([…]), msPSMB5exon3_fwd ([…]), and msPSMB5exon3_rev ([…]). The used PSMB5 transcript is PSMB5-202, transcript identification ID ENST00000361611.11, coding sequence: CCDS9584, as available on Ensemble Biomart database. Sanger sequencing was performed at Eurofins Genomics GmbH (Ebersberg, Germany).
(§1) Cell viability was analyzed using the XTT cell proliferation Kit II (Roche Diagnostics, Basel, Switzerland) according to the manufacturer's instructions. Drug treatment was started 24 h after cell seeding. The absorbance was measured after 72 h of treatment and normalized to the respective untreated control cells.
(In general: Formazan colour is commonly taken as a measure of viable cells.)

The subject of test [2] is KMS-18 T21A mutant cell line. Kind of test: XTT viability assay of KMS-18 multiple myeloma cell line with spontaneous PSMB5 T21A substitution. It counts as cell-based, human. The settings on record: KMS-18 T21A mutant cells, heterozygous. As to the method:
as §1
KMS-18 and KMS-27 cells, having a wild type PSMB5 locus, were subjected to a 4-week selection on bortezomib without the use of mutagens.
Resistance of these two mutant cell lines to the different proteasome inhibitors was investigated using the XTT viability assay.

Where [3] appears, read: T21 substitutions, 15 nM carfilzomib or 75 nM oprozomib.

“Also recorded” adds a separate entry of the source.

Take `CC(C)C[C@H](NC(=O)[C@H](CCc1ccccc1)NC(=O)CN1CCOCC1)C(=O)N[C@@H](Cc1ccccc1)C(=O)N[C@@H](CC(C)C)C(=O)[C@@]1(C)CO1` [carfilzomib]: in test [1] (15 nM carfilzomib, the different mutants), the “resistance in cell viability assay” value is “varying degrees of resistance; also recorded: highly variable”. The “response in cell viability assay” value in test [1] (T21A substitution) was “hypersensitive”; in test [1] (setting [3]), “hypersensitivity”. For the same molecule, the “response in cell viability assay (clustering, FIG. 12)” value in test [1] (substitutions in positions C63, S130, or Y169) is given as “partially maintained response”. Besides, in test [2], the “response in XTT viability assay” value was “sensitive”.

In the case of `CC(C)C[C@H](NC(=O)CNC(=O)c1cc(Cl)ccc1Cl)B(O)O` [ixazomib], the “resistance in cell viability assay” value in test [1] (50 nM ixazomib, all bortezomib resistant PSMB5 mutant cell lines) is listed as “resistant”. For the same molecule, the “response in cell viability assay” value in test [1] (T21A substitution) was “resistance”. Besides, in test [2], the “response in XTT viability assay” value is “resistance”.

With `CC(C)C[C@H](NC(=O)[C@H](Cc1ccccc1)NC(=O)c1cnccn1)B(O)O` [bortezomib, [(1R)-3-Methyl-1-[[(2S)-1-oxo-3-phenyl-2-[(pyrazinylcarbonyl)amino]propyl]amino]butyl]boronic acid], the “resistance of mutant cell lines compared to the wildtype control (viability assay)” value in test [1] (10 nM bortezomib, 72 h, identified Psmb5 mutant clones vs WT) was “up to 2 fold”. For the same molecule, the “response in cell viability assay” value in test [1] (T21A substitution) is reported as “resistance”. The “response in XTT viability assay” value in test [2] is “resistance”.

Take `COC[C@H](NC(=O)c1cnc(C)s1)C(=O)N[C@@H](COC)C(=O)N[C@@H](Cc1ccccc1)C(=O)[C@@]1(C)CO1` [oprozomib]: in test [1] (75 nM oprozomib, the different mutants), the “resistance in cell viability assay” value was “varying degrees of resistance; also recorded: highly variable”. Besides, the “response in cell viability assay” value in test [1] (T21A substitution) is “hypersensitive”; in test [1] (setting [3]), “hypersensitivity”. In addition, the “response in XTT viability assay” value in test [2] was “sensitive”.
